Assay results published in US7365231B2, “Compound with antitumor activity and preparation method therefor” (National Taiwan University of Science & Technology, priority 2005, dated 2008).

Experiments:
Experiment in all cases: NCI panel growth inhibition, sulforhodamine B
[1] = system: HCT-116; assay type: cell-based; details: Homo sapiens; HCT-116, Colon cancer; drug for last 48 h of 72 h
Text: (§1) Comparison of anticancer activities of the 1,3-substituted adamantane derivatives, 1,3-bis(4-aminophenyl)adamantane (1,3-DPANH2), 1,3-bis(4-(4-aminophenoxy)phenyl)adamantane (1,3-DPAONH2), 1,3-bis(4-(4-amino-3-hydroxy)phenyl)adamantane (1,3-DPA/OH/NH2) and 1,3-bis(4-(4-amino-2-trifluoromethylphenoxy)phenyl)adamantane (1,3-DPA/CF3/NH2) as shown in FIG. 1 were synthesized in the present invention. Those compounds were submitted to the National Cancer Institute for anticancer assay in culture against a standard panel of cell lines. […] To further confirm that the different substituents (CF3 and OH) on the phenyl ring of 1,3-DPAONH2 affect the growth inhibition of cancer cells. […] The transformations of 1,3-DPAONH2 to 1,3-DPA/OH/NH2 led to a remarked enhancement of anticancer activity toward all the tested cancer lines. The role of the OH group at the ortho position of the NH2 on growth inhibition is remarkable. In addition, one compound (1,3-DPA/OH/NH2) was confirmed to have an IC50 of <1 μM against one of the cells (BT-549 breast carcinoma). Comparison of anticancer activities of 1,3-substituted diaminophenyladamantane derivatives, the following order of potency against the tested cancer lines was observed: 1,3-DPA/OH/NH2>1,3-DPAONH2>1,3-DPANH2>1,3-DPA/CF3/NH2.

[2] = system: A498; assay type: cell-based; details: Homo sapiens; A498, Renal cancer; drug for last 48 h of 72 h
Text: as §1

[3] = system: A549/ATCC; assay type: cell-based; details: Homo sapiens, NSCLC, drug for last 48 h of 72 h
Text: as §1

[4] = system: COLO 205; assay type: cell-based; details: Homo sapiens; COLO 205, Colon cancer; drug for last 48 h of 72 h
Text: as §1

[5] = system: 786-0; assay type: cell-based; details: Homo sapiens; 786-0, Renal cancer; drug for last 48 h of 72 h
Text: as §1

[6] = system: HOP-62; assay type: cell-based; details: Homo sapiens; HOP-62, NSCLC; drug for last 48 h of 72 h
Text: as §1

[7] = system: MCF-7; assay type: cell-based; details: Homo sapiens, MCF7; MCF-7, Breast cancer; drug for last 48 h of 72 h
Text: as §1

[8] = system: M14; assay type: cell-based; details: Homo sapiens; M14, Melanoma; drug for last 48 h of 72 h
Text: as §1

[9] = system: OVCAR-4; assay type: cell-based; details: Homo sapiens; OVCAR-4, Ovarian cancer; drug for last 48 h of 72 h
Text: as §1

[10] = system: HL-60(TB); assay type: cell-based; details: Homo sapiens, Leukemia, drug for last 48 h of 72 h
Text: as §1

[11] = system: LOX IMVI; assay type: cell-based; details: Homo sapiens, Melanoma, drug for last 48 h of 72 h
Text: as §1

[12] = system: MOLT-4; assay type: cell-based; details: Homo sapiens; MOLT-4, Leukemia; drug for last 48 h of 72 h
Text: as §1

[13] = system: CCRF-CEM; assay type: cell-based; details: Homo sapiens, Leukemia, drug for last 48 h of 72 h
Text: as §1

[14] = system: SF-268; assay type: cell-based; details: Homo sapiens; SF-268, CNS cancer; drug for last 48 h of 72 h
Text: as §1

[15] = system: UACC-62; assay type: cell-based; details: Homo sapiens; UACC-62, Melanoma; drug for last 48 h of 72 h
Text: as §1

[16] = system: OVCAR-3; assay type: cell-based; details: Homo sapiens; OVCAR-3, Ovarian cancer; drug for last 48 h of 72 h
Text: as §1

[17] = system: MDA-MB-435; assay type: cell-based; details: Homo sapiens; MDA-MB-435, Breast cancer; drug for last 48 h of 72 h
Text: as §1

[18] = system: U251; assay type: cell-based; details: Homo sapiens, U-251; U251, CNS cancer; drug for last 48 h of 72 h
Text: as §1

[19] = system: K-562; assay type: cell-based; details: Homo sapiens, K562; K-562, Leukemia; drug for last 48 h of 72 h
Text: as §1

[20] = system: DU-145; assay type: cell-based; details: Homo sapiens; DU-145, Prostate cancer; drug for last 48 h of 72 h
Text: as §1

[21] = system: CAKI-1; assay type: cell-based; details: Homo sapiens; CAKI-1, Renal cancer; drug for last 48 h of 72 h
Text: as §1

[22] = system: SW-620; assay type: cell-based; details: Homo sapiens; SW-620, Colon cancer; drug for last 48 h of 72 h
Text: as §1

[23] = system: OVCAR-5; assay type: cell-based; details: Homo sapiens; OVCAR-5, Ovarian cancer; drug for last 48 h of 72 h
Text: as §1

[24] = system: ACHN; assay type: cell-based; details: Homo sapiens, Renal cancer, drug for last 48 h of 72 h
Text: as §1

[25] = system: EKVX; assay type: cell-based; details: Homo sapiens, NSCLC, drug for last 48 h of 72 h
Text: as §1

[26] = system: SK-MEL-28; assay type: cell-based; details: Homo sapiens; SK-MEL-28, Melanoma; drug for last 48 h of 72 h
Text: as §1

[27] = system: MDA-MB-231; assay type: cell-based; details: Homo sapiens; MDA-MB-231, Breast cancer; drug for last 48 h of 72 h
Text: as §1

[28] = system: SF-295; assay type: cell-based, human; details: Homo sapiens, SF-295, SF-295, CNS cancer; drug for last 48 h of 72 h
Text: as §1

[29] = system: NCI/ADR-RES; assay type: cell-based, human; details: Homo sapiens, Breast cancer, drug for last 48 h of 72 h
Text: as §1

[30] = system: BT-549; assay type: cell-based, human; details: Homo sapiens, BT-549, BT-549, Breast cancer; drug for last 48 h of 72 h
Text: as §1

Compound: Nc1ccc(Oc2ccc(C3(c4ccc(Oc5ccc(N)cc5)cc4)C4CC5CC(C4)CC3C5)cc2)cc1 [2,2-DPAONH2, 2,2-bis(4-(4-aminophenoxy)phenyl)adamantane]
- IC50 [1]: 2.71 µM
- IC50 [2]: 2.91 µM
- IC50 [3]: 3.38 µM
- IC50 [4]: 2.71 µM
- IC50 [5]: 3.07 µM
- IC50 [6]: 11.8 µM
- IC50 [7]: 3.81 µM
- IC50 [8]: 2.28 µM
- IC50 [9]: 6.96 µM
- IC50 [10]: 5 µM
- IC50 [11]: 2.75 µM
- IC50 [12]: 4.27 µM
- IC50 [13]: 3.03 µM
- IC50 [14]: 6.44 µM
- IC50 [15]: 17.7 µM
- IC50 [16]: 2.58 µM
- IC50 [17]: 6.04 µM
- IC50 [18]: 2.81 µM
- IC50 [19]: 3.89 µM
- IC50 [20]: 3.31 µM
- IC50 [21]: 11.1 µM
- IC50 [22]: 5.03 µM
- IC50 [23]: 15.3 µM
- IC50 [24]: 13.4 µM
- IC50 [25]: 4.76 µM
- IC50 [26]: 10.5 µM
- IC50 [27]: 17 µM
- IC50 [28]: 6.76 µM
- IC50 [29]: 15.8 µM
- IC50 [30]: 4.28 µM

Compound: Nc1ccc(Oc2ccc(C3(c4ccc(Oc5ccc(N)c(O)c5)cc4)C4CC5CC(C4)CC3C5)cc2)cc1O [DPA, 2,2-bis(4-(4-amino-3-hydroxyphenoxy)phenyl)adamantane]
- IC50 [1]: 1.58 µM
- IC50 [2]: 4.67 µM
- IC50 [3]: 1.94 µM
- IC50 [4]: 0.484 µM
- IC50 [5]: 1.88 µM
- IC50 [6]: 2.11 µM
- IC50 [7]: 1.93 µM
- IC50 [8]: 1.69 µM
- IC50 [9]: 3.07 µM
- IC50 [10]: 2.05 µM
- IC50 [11]: 1.69 µM
- IC50 [12]: 1.45 µM
- IC50 [13]: 3.08 µM
- IC50 [14]: 1.62 µM
- IC50 [15]: 3.21 µM
- IC50 [16]: 1.56 µM
- IC50 [17]: 2.3 µM
- IC50 [18]: 1.7 µM
- IC50 [19]: 1.98 µM
- IC50 [20]: 2.06 µM
- IC50 [21]: 2.32 µM
- IC50 [22]: 1.63 µM
- IC50 [23]: 2.08 µM
- IC50 [24]: 1.78 µM
- IC50 [25]: 2.63 µM
- IC50 [26]: 1.68 µM
- IC50 [27]: 1.82 µM
- IC50 [28]: 2.57 µM
- IC50 [29]: 2.33 µM
- IC50 [30]: 2.05 µM

Compound: Nc1ccc(Oc2ccc(C34CC5CC(C3)CC(c3ccc(Oc6ccc(N)cc6)cc3)(C5)C4)cc2)cc1 [1,3-DPAONH2, 1,3-bis(4-(4-aminophenoxy)phenyl)adamantane]
- IC50 [1]: 5.65 µM
- IC50 [2]: 18 µM
- IC50 [3]: 10.3 µM
- IC50 [4]: 13.3 µM
- IC50 [5]: 8.09 µM
- IC50 [6]: 10.7 µM
- IC50 [7]: 2.89 µM
- IC50 [8]: 9.62 µM
- IC50 [9]: 6.98 µM
- IC50 [10]: 17.1 µM
- IC50 [11]: 2.44 µM
- IC50 [12]: 3.81 µM
- IC50 [13]: 4.83 µM
- IC50 [14]: 5.6 µM
- IC50 [15]: 9.64 µM
- IC50 [16]: 3.08 µM
- IC50 [17]: 5.22 µM
- IC50 [18]: 7.9 µM
- IC50 [19]: 7.08 µM
- IC50 [20]: 6.41 µM
- IC50 [21]: 12.1 µM
- IC50 [22]: 6.52 µM
- IC50 [23]: 19.1 µM
- IC50 [24]: 11.7 µM
- IC50 [25]: 15.6 µM
- IC50 [26]: 18.8 µM
- IC50 [27]: 16.9 µM
- IC50 [28]: 6.91 µM
- IC50 [29]: 8.59 µM
- IC50 [30]: 4.02 µM
